Key:
[1] = Compatibility studies with IV infusion sets, IV bags and syringes (Study COM-003); format: physicochemical
Source text: Therefore, DEHP-containing IV infusion sets, IV bags or syringes should not be used in mixing or administration of CPI-613. […] Therefore, these 4 types of IV infusion sets, and IV infusion sets that are made with the same materials, can be used to administer CPI-613. […] Therefore, any of these types of syringes, and syringes that are made with the same materials, can be used to administer CPI-613. Also, glass syringes can also be used, since glass (such as glass containers) is compatible with CPI-613 drug product. • Norm-Ject, polyethlyene barrel, polyethylene plunger, latex free (Henke Sass Wolf GMBH) syringes • Becton Dickinson syringes • Terumo syringes • Monoject syringes • Glass syringes

[2] = Toxicities/side effects seen in prior CPI-613 studies treating other types of cancers; format: in vivo
Source text: Given the limited data for treating Burkitt lymphoma and other hematological malignancies with CPI-613, the following are the most frequent toxicities seen in prior CPI-613 studies treating other types of cancers.

[3] = pH and stability of CPI-613 drug product diluted with D5W; format: physicochemical; conditions: solution in 1M aqueous triethanolamine diluted from 50 mg/mL to as low as 4 mg/mL with D5W
Description: A solution of 6,8-bis-benzylthio-octanoic acid in 1M aqueous triethanolamine is diluted from 50 mg/mL to as low as 4 mg/mL with sterile 5% dextrose for injection (D5W) prior to administration. After dilution with D5W, the solution is clear and has a pH of 8.4-8.8. The D5W solution of 6,8-bis-benzylthio-octanoic acid is administered as an IV infusion over two hours via a central venous catheter on days 1-5 of every cycle.
CPI-613 must be diluted from 50 mg/mL to 12.5 mg/mL with 5% Dextrose Water (D5W) (i.e., 1 portion of CPI-613 diluted with 3 portions of D5W) prior to administration. The diluted drug product should be visually inspected for clarity. […] After dilution with sterile D5W, the solution is clear and has a pH of 8.4-8.8.

[4] = Photosensitivity of CPI-613; format: physicochemical
Description: Each vial contains 10 mL of CPI-613 at a concentration 50 mg/mL, equivalent to 500 mg of CPI-613. The drug product of CPI-613 is a clear and colorless solution that is free of any particulate matter. CPI-613 should be stored under refrigeration, at 2°-8° C. (36°-46° F.), except when being prepared for administration.

[5] = Maximum tolerated dose of CPI-613 as a single agent; format: in vivo; conditions: CPI-613 given as a single agent
Description: In the event that the DLT in ≥2 patients is not observed once the 3,000 mg/m^2 cohort has been tested, dose escalation is also considered to be complete since 3,000 mg/m^2 is the MTD of CPI-613 when given as a single agent. Three additional patients will be enrolled at the MTD for a total of six expected patients at this dose level.

[6] = Animal studies of IV administration of CPI-613; format: in vivo
Description: CPI-613 must be administered IV, via an IV catheter that is free flowing and free of air in the dead space of the IV catheter, to minimize vascular irritation, inflammation and acute toxicity of CPI-613. […] To avoid local reactions at and around the site of administration, CPI-613 must be administered via a central venous catheter.
CPI-613 must not be administered as a bolus, but by infusion, at a rate of ˜0.5 mL/min, via a central venous catheter with D5W running at a rate of about 125-150 mL/hr. This is to minimize potential acute toxicity of CPI-613, according to animal studies.

O=C(O)CCCCC(CCSCc1ccccc1)SCc1ccccc1 (stereo not drawn) [CPI-613, 6,8-bis-benzylthio-octanoic acid]
Compatibility with IV infusion sets ([1]; PVC, latex and polyethylene sets): compatible with 4 commonly used IV infusion sets | Leaching of DEHP from IV infusion sets and IV bags ([1]; Study COM-003): can cause leaching of Diethylhexyl Phthalate (DEHP) | Common side effects [2]: nausea, leukocytopenia, neutrophils (neutropenia), fatigue, and elevated alkaline phosphatase (ALP) | Rare but serious side effects [2]: infections, disseminated intravascular coagulation, elevated troponin, and renal failure | pH of solution after dilution with D5W [3]: 8.4-8.8 | Photosensitivity [4]: slightly photosensitive | MTD [5]: 3,000 mg/m^2 | Effect of accidental co-administration of extra air in the dead space of IV catheters ([6]; animal studies, IV administration): potential to induce acute toxicity | Effect of accidental leakage into the perivascular space during IV administration ([6]; in vivo, iv): can induce significant local inflammation

Reference: US20220151994A1, “THERAPEUTIC METHODS AND COMPOSITIONS FOR TREATING LYMPHOMA USING 6,8-BISBENZYLTHIO-OCTANOIC ACID” (Rafael Pharmaceuticals, Inc., priority 2019, published 2022)
